Counter-ions that a name gives are not always drawn. Like-named read-outs stand apart in the source and are kept apart here.
Assays:
[1] = tested on: 1a-H77 replicon cells; test: HCV 1a replicon inhibitory activity (Renilla luciferase); type: cell-based, hepatitis C virus; conditions: read-out: IC50 value (95% Confidence Intervals) pM Replicon 1A assay
Description: (§1) Test compounds were solubilised to 4 mM in 100% DMSO. Dilutions were made to the desired starting concentration in 100% DMSO and then 1 in 3 dilutions made, again in 100% DMSO. 0.5 μl of each sample was added to 384-well assay plates. White Lumitrac (Greiner) plates were used for the 1a and 1b replicon assays and black, clear bottomed (Greiner) plates were used for the WST-1 cytotoxity assay.
1a-H77 replicon cells (licensed from Apath LLC) were resuspended to a concentration of 1.4×10^5 cells/ml by addition of pre-warmed assay medium (Dulbecco's Modified Eagle's Medium (DMEM)+10% fetal calf serum (FCS)). 50 μl of this suspension was added to each well of a 384-well assay plate (Lumitrac, Greiner), already containing 0.5 μl of test compound.
All plates were covered with gas permeable seals and incubated at 37° C., 5% CO2 for 48 hours. After 48 hours, the assay plate was removed from the incubator and left to cool to room temperature for 15 to 30 mins. Medium was removed from the wells and 5 μl 1× lysis buffer (from Promega's Renilla Luciferase assay kit, E2820) was added to each well. The plate was incubated at room temperature for 15 mins then 15 μl 1×Assay Substrate (from the same kit) was added to each well. Luminescence was read immediately using an EnVision (Perkin Elmer) plate reader. The half maximal effective concentration (1050) values were calculated by constructing log concentration-response curves for each compound.

[2] = tested on: 1b (con1) replicon cells; test: HCV 1b replicon inhibitory activity (luciferase, Britelite Plus); type: cell-based, hepatitis C virus; conditions: read-out: IC50 value (95% Confidence Intervals) pM Replicon 1B assay
Description: as §1
1b (con1) replicon cells (pFK1389lucubineo/NS3-3′/ET/9B, licensed from Ralf Bartenschlager, University of Heidelberg) were resuspended to a concentration of 1.4×10^5 cells/ml by addition of pre-warmed medium (DMEM+10% FCS). 50 μl of this suspension was added to each well of a 384-well assay plate (Lumitrac, Greiner) already containing 0.5 μl of test compound.
All plates were covered with gas permeable seals and incubated at 37° C., 5% CO2 for 48 hours. After 48 hours, the plate was removed from the incubator and left to cool to room temperature for 15-30 mins. 35 ul of reconstituted Lyophilised Britelite Plus Substrate (PerkinElmer, 6016767) to medium was added to each well. Luminescence was read after 1 min but before 15 mins on an EnVision (Perkin Elmer) plate reader. The half maximal effective concentration (1050) values were calculated by constructing log concentration-response curves for each compound.

[3] = Hepatitis C virus, geometric mean, 95% confidence intervals in parentheses, 48 hours, medium with 10% FCS
[4] = geometric mean, 95% confidence intervals in parentheses, 48 hours, medium with 10% FCS

## COC(=O)N[C@H](C(=O)N1CCC[C@H]1c1ncc(-c2ccc(-c3ccc4cc(-c5cnc([C@@H]6CCCN6C(=O)[C@@H](NC(=O)OC)C(C)C)[nH]5)ncc4c3)cc2)[nH]1)C(C)C [Example 8, Methyl {(2S)-1-[(2S)-2-{5-[4-(3-{2-[(2S)-1-{(2S)-2-[(methoxycarbonyl)amino]-3-methyl-butanoyl}pyrrolidin-2-yl]-1H-imidazol-5-yl}isoquinolin-7-yl)phenyl]-1H-imidazol-2-yl}pyrrolidin-1-yl]-3-methyl-1-oxobutan-2-yl}carbamate]
[1]; [3]
  IC50: 91.2 pM
[2]; [3]
  IC50: 20.5 pM

## CC[C@H](NC(C)=O)C(=O)N1CCC[C@H]1c1ncc(-c2ccc3nc(-c4ccc(-c5c[nH]c([C@@H]6CCCN6C(=O)[C@@H](NC(=O)OC)C(C)C)n5)cc4)cnc3c2)[nH]1 [Example 39, Methyl {(2S)-1-[(2S)-2-(4-{4-[6-(2-{(2S)-1-[(2S)-2-(acetylamino)butanoyl]pyrrolidin-2-yl}-1H-imidazol-5-yl)quinoxalin-2-yl]phenyl}-1H-imidazol-2-yl)pyrrolidin-1-yl]-3-methyl-1-oxobutan-2-yl}carbamate trifluoroacetic acid salt]
[1]; Hepatitis C virus, 48 h
  IC50: 1240 pM
[2]; Hepatitis C virus, 48 h
  IC50: 48.1 pM

## COC(=O)N[C@H](C(=O)N1CCC[C@H]1c1ncc(-c2ccc(-c3cnc4cc(-c5cnc([C@@H]6CCCN6C(=O)[C@@H](NC(=O)OC)C(C)C)[nH]5)ccc4n3)nc2)[nH]1)C(C)C [Example 9, Methyl {(2S)-1-[(2S)-2-{5-[6-(6-{2-[(2S)-1-{(2S)-2-[(methoxycarbonyl)amino]-3-methyl-butanoyl}pyrrolidin-2-yl]-1H-imidazol-5-yl}quinoxalin-2-yl)pyridin-3-yl]-1H-imidazol-2-yl}pyrrolidin-1-yl]-3-methyl-1-oxobutan-2-yl}carbamate]
[1]; [3]
  IC50: 42.9 pM
[2]; [3]
  IC50: 12.7 pM

## CCC[C@@H](NC(=O)OC)C(=O)N1CCC[C@H]1c1ncc(-c2ccc3nc(-c4ccc(-c5c[nH]c([C@@H]6CCCN6C(=O)[C@@H](NC(=O)OC)C(C)C)n5)cc4)cnc3c2)[nH]1 [Example 77, Methyl {(2R)-1-[(2S)-2-{5-[2-(4-{2-[(2S)-1-{(2S)-2-[(methoxycarbonyl)amino]-3-methylbutanoyl}pyrrolidin-2-yl]-1H-imidazol-4-yl}phenyl)quinoxalin-6-yl]-1H-imidazol-2-yl}pyrrolidin-1-yl]-1-oxopentan-2-yl}carbamate trifluoroacetic acid salt]
[1]; Hepatitis C virus, 48 h
  IC50: 186 pM
[2]; Hepatitis C virus, 48 h
  IC50: 31.4 pM

## COC(=O)N[C@H](C(=O)N1CCC[C@H]1c1nc(-c2ccc(-c3cnc4cc(-c5cnc([C@@H]6CCCN6C(=O)[C@@H](C)NC(C)=O)[nH]5)ccc4n3)cc2)c[nH]1)C(C)C [Example 46, Methyl {(2S)-1-[(2S)-2-{4-[4-(6-(2-[(2S)-1-(N-acetyl-D-alanyl)pyrrolidin-2-yl]-1H-imidazol-5-yl}quinoxalin-2-yl)phenyl]-1H-imidazol-2-yl}pyrrolidin-1-yl]-3-methyl-1-oxobutan-2-yl}carbamate trifluoroacetic acid salt]
[1]; Hepatitis C virus, 48 h
  IC50: 803 pM
[2]; Hepatitis C virus, 48 h
  IC50: 44.2 pM

## COC(=O)N[C@@H](CC1CCCCC1)C(=O)N1CCC[C@H]1c1ncc(-c2ccc3nc(-c4ccc(-c5c[nH]c([C@@H]6CCCN6C(=O)[C@@H](NC(=O)OC)C(C)C)n5)cc4)cnc3c2)[nH]1 [Example 80, Methyl {(2S)-1-[(2S)-2-(4-{4-[6-(2-{(2S)-1-[3-cyclohexyl-N-(methoxycarbonyl)alanyl]pyrrolidin-2-yl}-1H-imidazol-5-yl)quinoxalin-2-yl]phenyl}-1H-imidazol-2-yl)pyrrolidin-1-yl]-3-methyl-1-oxobutan-2-yl} carbamate]
[1]; [4]
  IC50: 117 pM
[2]; [4]
  IC50: 11.4 pM

Source: patent publication US20110112100A1, “Hepatitis C Virus Inhibitors” (priority 2009, published 2011)
